Test results as given in the kinase profiling compilation of Christmann-Franck et al. (2016).
Several values for one entry are separate records, joined by “and”; a condition that tells them apart may be missing. Identical values can stand only once.

Assays:
Assay in all cases: radiometric filter-binding kinase assay, Kinase HotSpot
Details in all cases: compound 0.5 µM; ATP 10 µM
TYRO3 (human) = TYRO3 (human) (UniProt Q06418)
DYRK3 (human) = DYRK3 (human) (UniProt O43781)
EPHB2 (human) = EPHB2 (human) (UniProt P29323)
CHEK2 (human) = CHEK2 (human) (UniProt O96017)
CDK1 CCNB1 (human) = CDK1 CCNB1 (human) (UniProt P06493+P14635)
CSNK1G2 (human) = CSNK1G2 (human) (UniProt P78368)
CDK4 CCND1 (human) = CDK4 CCND1 (human) (UniProt P24385+P11802)
TEK (human) = TEK (human) (UniProt Q02763)
PRKG2 (human) = PRKG2 (human) (UniProt Q13237)
[1] = tested on: MAP2K6 (human), P52564 [S207E/T211E]
ROS1 (human) = ROS1 (human) (UniProt P08922)
NUAK1 (human) = NUAK1 (human) (UniProt O60285)
IRAK1 (human) = IRAK1 (human) (UniProt P51617)
CLK4 (human) = CLK4 (human) (UniProt Q9HAZ1)
TAOK1 (human) = TAOK1 (human) (UniProt Q7L7X3)
CDK2 CCNA2 (human) = CDK2 CCNA2 (human) (UniProt P24941+P20248)
MUSK (human) = MUSK (human) (UniProt O15146)
STK3 (human) = STK3 (human) (UniProt Q13188)
CDK3 CCNE1 (human) = CDK3 CCNE1 (human) (UniProt Q00526+P24864)
EPHA7 (human) = EPHA7 (human) (UniProt Q15375)
EPHA8 (human) = EPHA8 (human) (UniProt P29322)
RPS6KA2 KD1 KD2 (human) = RPS6KA2 KD1 KD2 (human) (UniProt Q15349)
MAP3K5 (human) = MAP3K5 (human) (UniProt Q99683)
CSF1R (human) = CSF1R (human) (UniProt P07333)
SRMS (human) = SRMS (human) (UniProt Q9H3Y6)
PLK2 (human) = PLK2 (human) (UniProt Q9NYY3)
PRKX (human) = PRKX (human) (UniProt P51817)
ACVRL1 (human) = ACVRL1 (human) (UniProt P37023)
MAPK1 (human) = MAPK1 (human) (UniProt P28482)
PHKG2 (human) = PHKG2 (human) (UniProt P15735)
CAMK4 (human) = CAMK4 (human) (UniProt Q16566)
MARK2 (human) = MARK2 (human) (UniProt Q7KZI7)
PBK (human) = PBK (human) (UniProt Q96KB5)
PAK7 (human) = PAK7 (human) (UniProt Q9P286)
LYN (human) = LYN (human) (UniProt P07948)
CSNK2A2 (human) = CSNK2A2 (human) (UniProt P19784)
AKT3 (human) = AKT3 (human) (UniProt Q9Y243)
ULK1 (human) = ULK1 (human) (UniProt O75385)
PAK3 (human) = PAK3 (human) (UniProt O75914)
FER (human) = FER (human) (UniProt P16591)
STK39 (human) = STK39 (human) (UniProt Q9UEW8)
TGFBR1 (human) = TGFBR1 (human) (UniProt P36897)

Sequence of CDK4 CCND1 (human) (P11802 whole entry, looked up): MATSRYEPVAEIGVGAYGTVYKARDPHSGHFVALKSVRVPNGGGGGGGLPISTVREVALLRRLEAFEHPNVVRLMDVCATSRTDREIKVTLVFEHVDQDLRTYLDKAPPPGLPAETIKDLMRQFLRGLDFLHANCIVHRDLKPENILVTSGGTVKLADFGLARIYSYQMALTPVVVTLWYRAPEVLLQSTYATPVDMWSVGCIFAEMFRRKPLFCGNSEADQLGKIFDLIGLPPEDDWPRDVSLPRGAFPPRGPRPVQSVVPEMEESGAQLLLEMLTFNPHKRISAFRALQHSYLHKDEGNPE
Sequence of CDK4 CCND1 (human) (P24385 whole entry, looked up): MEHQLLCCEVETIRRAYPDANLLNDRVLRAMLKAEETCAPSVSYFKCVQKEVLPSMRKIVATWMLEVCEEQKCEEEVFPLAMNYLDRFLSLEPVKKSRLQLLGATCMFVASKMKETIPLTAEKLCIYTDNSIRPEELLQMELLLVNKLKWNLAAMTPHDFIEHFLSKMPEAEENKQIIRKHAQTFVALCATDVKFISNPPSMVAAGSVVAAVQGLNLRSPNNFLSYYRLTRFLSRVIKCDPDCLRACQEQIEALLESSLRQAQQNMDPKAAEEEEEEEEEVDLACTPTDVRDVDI
Sequence of NUAK1 (human) (O60285 whole entry, looked up): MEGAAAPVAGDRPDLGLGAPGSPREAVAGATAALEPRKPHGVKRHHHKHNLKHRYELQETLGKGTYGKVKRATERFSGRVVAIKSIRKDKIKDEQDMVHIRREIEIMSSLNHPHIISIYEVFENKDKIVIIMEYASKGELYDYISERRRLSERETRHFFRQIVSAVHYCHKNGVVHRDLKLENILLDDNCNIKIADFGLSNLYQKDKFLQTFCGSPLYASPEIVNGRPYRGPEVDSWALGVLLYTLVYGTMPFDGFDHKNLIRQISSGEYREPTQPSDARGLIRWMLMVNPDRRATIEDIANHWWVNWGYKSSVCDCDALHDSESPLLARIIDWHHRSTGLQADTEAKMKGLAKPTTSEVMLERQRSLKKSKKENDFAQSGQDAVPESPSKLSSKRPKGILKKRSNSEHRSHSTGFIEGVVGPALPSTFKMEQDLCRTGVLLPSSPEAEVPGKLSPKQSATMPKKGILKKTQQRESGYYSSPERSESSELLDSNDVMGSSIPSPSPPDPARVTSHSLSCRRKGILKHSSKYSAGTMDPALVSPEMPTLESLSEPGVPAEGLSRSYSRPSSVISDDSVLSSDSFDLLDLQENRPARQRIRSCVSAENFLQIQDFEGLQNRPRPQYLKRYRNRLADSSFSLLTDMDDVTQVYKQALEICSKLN
Sequence of IRAK1 (human) (P51617 whole entry, looked up): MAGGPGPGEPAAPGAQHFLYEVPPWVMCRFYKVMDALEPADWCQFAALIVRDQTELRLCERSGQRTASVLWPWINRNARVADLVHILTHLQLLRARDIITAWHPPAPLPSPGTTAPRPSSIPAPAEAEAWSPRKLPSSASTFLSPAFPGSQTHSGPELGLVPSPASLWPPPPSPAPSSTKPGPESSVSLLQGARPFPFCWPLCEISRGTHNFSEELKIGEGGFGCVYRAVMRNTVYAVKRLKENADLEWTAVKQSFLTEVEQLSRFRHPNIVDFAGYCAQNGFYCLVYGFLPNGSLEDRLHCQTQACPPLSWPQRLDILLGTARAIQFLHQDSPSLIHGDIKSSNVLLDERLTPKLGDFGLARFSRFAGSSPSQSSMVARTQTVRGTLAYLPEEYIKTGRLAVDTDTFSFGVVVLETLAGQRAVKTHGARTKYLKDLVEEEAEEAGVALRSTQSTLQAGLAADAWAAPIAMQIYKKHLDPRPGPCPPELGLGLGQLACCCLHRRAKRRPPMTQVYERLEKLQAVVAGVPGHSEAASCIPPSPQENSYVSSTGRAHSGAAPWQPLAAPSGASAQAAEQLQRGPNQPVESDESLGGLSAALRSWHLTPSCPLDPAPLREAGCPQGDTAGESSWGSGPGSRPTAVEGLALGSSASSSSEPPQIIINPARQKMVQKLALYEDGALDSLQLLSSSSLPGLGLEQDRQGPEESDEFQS
Sequence of EPHA7 (human) (Q15375 whole entry, looked up): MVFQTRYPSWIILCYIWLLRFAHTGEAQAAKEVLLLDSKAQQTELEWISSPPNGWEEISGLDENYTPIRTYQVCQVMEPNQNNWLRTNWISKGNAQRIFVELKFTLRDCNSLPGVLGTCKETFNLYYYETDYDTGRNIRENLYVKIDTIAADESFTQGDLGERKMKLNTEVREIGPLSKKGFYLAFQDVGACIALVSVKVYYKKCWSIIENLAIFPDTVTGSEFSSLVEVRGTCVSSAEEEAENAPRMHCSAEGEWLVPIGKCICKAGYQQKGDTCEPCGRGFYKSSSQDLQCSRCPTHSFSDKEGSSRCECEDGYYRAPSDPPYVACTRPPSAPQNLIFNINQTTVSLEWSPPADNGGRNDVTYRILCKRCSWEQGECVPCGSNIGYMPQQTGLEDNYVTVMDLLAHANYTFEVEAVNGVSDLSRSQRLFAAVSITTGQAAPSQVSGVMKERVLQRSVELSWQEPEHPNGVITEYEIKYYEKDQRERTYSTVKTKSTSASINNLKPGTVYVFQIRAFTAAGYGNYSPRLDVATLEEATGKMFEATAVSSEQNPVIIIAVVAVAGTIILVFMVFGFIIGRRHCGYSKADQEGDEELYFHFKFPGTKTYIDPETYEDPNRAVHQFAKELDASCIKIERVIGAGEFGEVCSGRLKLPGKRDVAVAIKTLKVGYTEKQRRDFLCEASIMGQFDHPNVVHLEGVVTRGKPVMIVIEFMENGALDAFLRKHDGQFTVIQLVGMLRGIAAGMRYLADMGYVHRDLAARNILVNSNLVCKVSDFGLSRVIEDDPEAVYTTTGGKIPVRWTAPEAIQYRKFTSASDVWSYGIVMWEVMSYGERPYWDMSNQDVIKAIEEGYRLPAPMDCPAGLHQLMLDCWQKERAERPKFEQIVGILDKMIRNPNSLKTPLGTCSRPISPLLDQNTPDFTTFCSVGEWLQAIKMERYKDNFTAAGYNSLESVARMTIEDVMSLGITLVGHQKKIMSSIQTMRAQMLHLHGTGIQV
Sequence of CDK3 CCNE1 (human) (P24864 whole entry, looked up): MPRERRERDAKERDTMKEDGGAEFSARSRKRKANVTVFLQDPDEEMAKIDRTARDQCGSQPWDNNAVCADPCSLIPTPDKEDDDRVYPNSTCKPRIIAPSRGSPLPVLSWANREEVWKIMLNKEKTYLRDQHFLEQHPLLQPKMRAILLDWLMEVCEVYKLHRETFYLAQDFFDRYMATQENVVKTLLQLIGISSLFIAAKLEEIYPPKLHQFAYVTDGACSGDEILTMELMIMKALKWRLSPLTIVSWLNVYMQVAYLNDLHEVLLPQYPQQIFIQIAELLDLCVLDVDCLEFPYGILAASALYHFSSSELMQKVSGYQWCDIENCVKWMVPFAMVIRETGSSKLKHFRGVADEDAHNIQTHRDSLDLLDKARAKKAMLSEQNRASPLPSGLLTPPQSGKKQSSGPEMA
Sequence of CDK3 CCNE1 (human) (Q00526 whole entry, looked up): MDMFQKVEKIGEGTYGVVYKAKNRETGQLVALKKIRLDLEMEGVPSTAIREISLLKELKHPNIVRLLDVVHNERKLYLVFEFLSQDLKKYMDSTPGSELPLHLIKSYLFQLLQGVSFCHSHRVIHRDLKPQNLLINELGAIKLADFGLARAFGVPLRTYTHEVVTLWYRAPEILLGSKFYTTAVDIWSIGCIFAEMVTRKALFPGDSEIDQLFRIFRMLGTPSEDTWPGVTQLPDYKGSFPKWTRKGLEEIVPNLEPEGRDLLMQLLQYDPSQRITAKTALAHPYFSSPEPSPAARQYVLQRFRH
Sequence of CSNK2A2 (human) (P19784 whole entry, looked up): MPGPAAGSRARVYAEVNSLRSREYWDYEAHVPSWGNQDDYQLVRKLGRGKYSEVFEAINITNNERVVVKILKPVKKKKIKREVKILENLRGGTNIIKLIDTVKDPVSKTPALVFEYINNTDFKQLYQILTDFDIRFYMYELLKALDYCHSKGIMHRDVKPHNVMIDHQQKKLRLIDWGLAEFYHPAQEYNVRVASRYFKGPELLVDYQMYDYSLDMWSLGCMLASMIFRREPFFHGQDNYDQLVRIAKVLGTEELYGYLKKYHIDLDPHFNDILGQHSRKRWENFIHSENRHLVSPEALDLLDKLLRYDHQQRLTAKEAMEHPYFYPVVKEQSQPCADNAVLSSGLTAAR
Sequence of CDK1 CCNB1 (human) (P06493 whole entry, looked up): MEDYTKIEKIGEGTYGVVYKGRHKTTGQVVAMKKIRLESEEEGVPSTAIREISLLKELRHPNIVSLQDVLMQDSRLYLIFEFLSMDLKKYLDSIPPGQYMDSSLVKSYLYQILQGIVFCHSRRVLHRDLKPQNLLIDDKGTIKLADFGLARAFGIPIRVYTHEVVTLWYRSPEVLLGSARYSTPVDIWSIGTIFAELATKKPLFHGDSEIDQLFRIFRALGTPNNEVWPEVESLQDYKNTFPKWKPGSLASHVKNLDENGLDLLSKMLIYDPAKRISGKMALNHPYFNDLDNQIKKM
Sequence of CDK1 CCNB1 (human) (P14635 whole entry, looked up): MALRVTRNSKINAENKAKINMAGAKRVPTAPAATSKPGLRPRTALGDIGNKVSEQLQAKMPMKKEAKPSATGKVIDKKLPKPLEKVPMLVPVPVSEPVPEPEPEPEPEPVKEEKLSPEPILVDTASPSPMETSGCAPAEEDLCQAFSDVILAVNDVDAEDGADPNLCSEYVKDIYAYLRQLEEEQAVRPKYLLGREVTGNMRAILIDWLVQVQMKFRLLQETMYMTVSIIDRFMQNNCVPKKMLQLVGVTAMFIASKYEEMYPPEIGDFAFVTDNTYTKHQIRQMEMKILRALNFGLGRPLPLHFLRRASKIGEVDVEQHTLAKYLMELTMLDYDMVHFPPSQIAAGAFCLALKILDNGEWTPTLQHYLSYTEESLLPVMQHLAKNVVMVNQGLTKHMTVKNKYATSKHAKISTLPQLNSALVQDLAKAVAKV

`N#Cc1c[nH]c2c[nH]/c(=N\Cc3cccnc3)cc2/c1=N\c1ccc(F)c(Cl)c1` was tested, and the residual activity (TYRO3 (human)) was 98%, the residual activity (DYRK3 (human)) was 96.3% and the residual activity (EPHB2 (human)) was 97.4%. The residual activity (CHEK2 (human)) was 90.5%, the residual activity (CDK1 CCNB1 (human)) was 84.6% and the residual activity (CSNK1G2 (human)) was 102%. For the same molecule, the residual activity (CDK4 CCND1 (human)) was 97.6%, the residual activity (TEK (human)) was 95.5% and the residual activity (PRKG2 (human)) was 90.9%. The residual activity [1] was 115%, the residual activity (ROS1 (human)) was 98.3% and the residual activity (NUAK1 (human)) was 103%. For the same molecule, the residual activity (IRAK1 (human)) was 114%, the residual activity (CLK4 (human)) was 63.3% and the residual activity (TAOK1 (human)) was 89.9%. The residual activity (CDK2 CCNA2 (human)) was 75.1%, the residual activity (MUSK (human)) was 55.6% and the residual activity (STK3 (human)) was 94.3%. For the same molecule, the residual activity (CDK3 CCNE1 (human)) was 95.6%, the residual activity (EPHA7 (human)) was 83.7% and the residual activity (EPHA8 (human)) was 91.2%. The residual activity (RPS6KA2 KD1 KD2 (human)) was 87.3%, the residual activity (MAP3K5 (human)) was 106% and the residual activity (CSF1R (human)) was 96.3%. For the same molecule, the residual activity (SRMS (human)) was 104%, the residual activity (PLK2 (human)) was 110% and the residual activity (PRKX (human)) was 101%. For the same molecule, the residual activity (ACVRL1 (human)) was 96.9%, the residual activity (MAPK1 (human)) was 105% and the residual activity (PHKG2 (human)) was 88.3%. For the same molecule, the residual activity (CAMK4 (human)) was 95.2%, the residual activity (MARK2 (human)) was 93.2% and the residual activity (PBK (human)) was 84.8%. For the same molecule, the residual activity (PAK7 (human)) was 98.3%, the residual activity (LYN (human)) was 90.4% and 94.1% and the residual activity (CSNK2A2 (human)) was 75.2%. For the same molecule, the residual activity (AKT3 (human)) was 95.1%, the residual activity (ULK1 (human)) was 76.1% and the residual activity (PAK3 (human)) was 99.2%. For the same molecule, the residual activity (FER (human)) was 82.9%, the residual activity (STK39 (human)) was 78.6% and the residual activity (TGFBR1 (human)) was 99.6%.
`COc1cc2ncnc(Nc3ccc(OCc4ccccc4)cc3)c2cc1OC` showed a residual activity (TYRO3 (human)) of 86.9%, a residual activity (DYRK3 (human)) of 101% and a residual activity (EPHB2 (human)) of 93.9%. For the same molecule, the residual activity (CHEK2 (human)) was 14.2%, the residual activity (CDK1 CCNB1 (human)) was 89.9% and the residual activity (CSNK1G2 (human)) was 98.4%. It also gave a residual activity (CDK4 CCND1 (human)) of 99.2%, a residual activity (TEK (human)) of 97.9% and a residual activity (PRKG2 (human)) of 104%. The residual activity [1] was 109%, the residual activity (ROS1 (human)) was 98% and the residual activity (NUAK1 (human)) was 94.8%. It also gave a residual activity (IRAK1 (human)) of 97.4%, a residual activity (CLK4 (human)) of 99.5% and a residual activity (TAOK1 (human)) of 94.4%. For the same molecule, the residual activity (CDK2 CCNA2 (human)) was 100%, the residual activity (MUSK (human)) was 99.3% and the residual activity (STK3 (human)) was 97.6%. It also gave a residual activity (CDK3 CCNE1 (human)) of 96.3%, a residual activity (EPHA7 (human)) of 97% and a residual activity (EPHA8 (human)) of 102%. It also gave a residual activity (RPS6KA2 KD1 KD2 (human)) of 100%, a residual activity (MAP3K5 (human)) of 97.8% and a residual activity (CSF1R (human)) of 97.8%. For the same molecule, the residual activity (SRMS (human)) was 104%, the residual activity (PLK2 (human)) was 109% and the residual activity (PRKX (human)) was 105%. For the same molecule, the residual activity (ACVRL1 (human)) was 102%, the residual activity (MAPK1 (human)) was 100% and the residual activity (PHKG2 (human)) was 97.4%. It also gave a residual activity (CAMK4 (human)) of 101%, a residual activity (MARK2 (human)) of 108% and a residual activity (PBK (human)) of 109%. The residual activity (PAK7 (human)) was 99.6%, the residual activity (LYN (human)) was 91.2% and 92.8% and the residual activity (CSNK2A2 (human)) was 95.3%. The residual activity (AKT3 (human)) was 103%, the residual activity (ULK1 (human)) was 107% and the residual activity (PAK3 (human)) was 97.7%. For the same molecule, the residual activity (FER (human)) was 90.8%, the residual activity (STK39 (human)) was 95.8% and the residual activity (TGFBR1 (human)) was 95.7%.
In the case of `Fc1ccc(-c2nc3n(c2-c2ccncc2)CCS3)cc1`, the residual activity (TYRO3 (human)) was 104%, the residual activity (DYRK3 (human)) was 103% and the residual activity (EPHB2 (human)) was 99.3%. The residual activity (CHEK2 (human)) was 97.7%, the residual activity (CDK1 CCNB1 (human)) was 91.4% and the residual activity (CSNK1G2 (human)) was 76.4%. For the same molecule, the residual activity (CDK4 CCND1 (human)) was 114%, the residual activity (TEK (human)) was 95.6% and the residual activity (PRKG2 (human)) was 93.9%. It also gave a residual activity [1] of 104%, a residual activity (ROS1 (human)) of 95.8% and a residual activity (NUAK1 (human)) of 98.6%. The residual activity (IRAK1 (human)) was 125%, the residual activity (CLK4 (human)) was 106% and the residual activity (TAOK1 (human)) was 97.7%. The residual activity (CDK2 CCNA2 (human)) was 101%, the residual activity (MUSK (human)) was 91.1% and the residual activity (STK3 (human)) was 111%. It also gave a residual activity (CDK3 CCNE1 (human)) of 97%, a residual activity (EPHA7 (human)) of 76.3% and a residual activity (EPHA8 (human)) of 88.2%. For the same molecule, the residual activity (RPS6KA2 KD1 KD2 (human)) was 97.1%, the residual activity (MAP3K5 (human)) was 105% and the residual activity (CSF1R (human)) was 103%. The residual activity (SRMS (human)) was 102%, the residual activity (PLK2 (human)) was 103% and the residual activity (PRKX (human)) was 97.6%. For the same molecule, the residual activity (ACVRL1 (human)) was 97.9%, the residual activity (MAPK1 (human)) was 106% and the residual activity (PHKG2 (human)) was 104%. It also gave a residual activity (CAMK4 (human)) of 99.8%, a residual activity (MARK2 (human)) of 96.4% and a residual activity (PBK (human)) of 100%. The residual activity (PAK7 (human)) was 97.6%, the residual activity (LYN (human)) was 106% and 97.4% and the residual activity (CSNK2A2 (human)) was 105%. It also gave a residual activity (AKT3 (human)) of 109%, a residual activity (ULK1 (human)) of 82.6% and a residual activity (PAK3 (human)) of 104%. For the same molecule, the residual activity (FER (human)) was 86.4%, the residual activity (STK39 (human)) was 103% and the residual activity (TGFBR1 (human)) was 106%.
